Data from ChEMBL document CHEMBL2396588, “Synthesis, biological evaluation and molecular modeling of substituted 2-aminobenzimidazoles as novel inhibitors of acetylcholinesterase and butyrylcholinesterase” (Bioorg Med Chem, 2013).

Key:
HepG2 = assay: (§1) Cytotoxicity against human HepG2 cells assessed as cell viability at 100 uM after 48 hrs by MTT assay; assay type: cell-based; details: hepg2, 48 h, 100 µM
PC-12 = assay: Cytotoxicity against rat PC12 cells assessed as cell viability at 100 uM after 48 hrs by MTT assay; assay type: cell-based; details: pc-12, 48 h
Cholinesterase = Cholinesterase (Homo sapiens, UniProt P06276); assay: Inhibition of human BuChE using butyrylthiocholine iodide as substrate incubated for 20 mins prior to substrate addition measured for 1 hr by Ellman's method
Acetylcholinesterase = Acetylcholinesterase (Homo sapiens, UniProt P22303); assay: Inhibition of human AchE using acetylthiocholine iodide as substrate incubated for 20 mins prior to substrate addition measured for 1 hr by Ellman's method
Homo sapiens = species: Homo sapiens; assay: Selectivity ratio of IC50 for human AChE to IC50 for human BuChE
[1] = as §1; assay type: cell-based; details: HepG2 cells, read-out: Activity

Sequence of Acetylcholinesterase (P22303 whole entry): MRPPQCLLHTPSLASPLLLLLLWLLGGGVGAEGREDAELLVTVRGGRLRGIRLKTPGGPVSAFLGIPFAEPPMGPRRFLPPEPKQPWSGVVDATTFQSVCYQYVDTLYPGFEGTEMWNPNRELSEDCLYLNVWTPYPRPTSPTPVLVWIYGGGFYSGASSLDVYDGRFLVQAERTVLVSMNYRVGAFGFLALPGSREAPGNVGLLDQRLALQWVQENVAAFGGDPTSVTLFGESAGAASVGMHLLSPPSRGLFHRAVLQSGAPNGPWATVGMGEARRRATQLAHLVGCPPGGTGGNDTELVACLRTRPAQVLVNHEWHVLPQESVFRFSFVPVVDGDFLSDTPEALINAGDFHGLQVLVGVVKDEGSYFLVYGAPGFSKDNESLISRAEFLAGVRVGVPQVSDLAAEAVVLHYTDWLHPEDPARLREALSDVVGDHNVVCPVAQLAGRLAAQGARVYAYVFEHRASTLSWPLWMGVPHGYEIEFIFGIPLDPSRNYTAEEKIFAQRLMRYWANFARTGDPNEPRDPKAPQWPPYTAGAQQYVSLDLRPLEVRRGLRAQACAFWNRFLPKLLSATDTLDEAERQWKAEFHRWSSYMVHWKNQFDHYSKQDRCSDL
Sequence of Cholinesterase (P06276 whole entry): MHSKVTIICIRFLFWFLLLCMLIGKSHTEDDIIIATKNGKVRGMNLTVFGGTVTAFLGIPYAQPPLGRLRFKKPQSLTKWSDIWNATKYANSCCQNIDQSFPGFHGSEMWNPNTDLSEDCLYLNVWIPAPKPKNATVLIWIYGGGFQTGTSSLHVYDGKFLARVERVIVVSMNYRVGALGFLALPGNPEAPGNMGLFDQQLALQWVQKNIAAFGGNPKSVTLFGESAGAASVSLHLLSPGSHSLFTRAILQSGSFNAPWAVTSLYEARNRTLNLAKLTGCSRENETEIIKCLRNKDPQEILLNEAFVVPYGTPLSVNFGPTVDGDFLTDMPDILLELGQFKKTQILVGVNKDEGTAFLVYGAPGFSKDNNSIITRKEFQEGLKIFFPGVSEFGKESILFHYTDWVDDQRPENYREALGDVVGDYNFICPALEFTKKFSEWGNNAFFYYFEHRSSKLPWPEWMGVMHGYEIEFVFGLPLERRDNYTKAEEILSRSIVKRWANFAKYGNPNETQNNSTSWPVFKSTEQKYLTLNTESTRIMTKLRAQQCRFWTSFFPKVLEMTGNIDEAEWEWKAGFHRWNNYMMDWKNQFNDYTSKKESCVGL

| SMILES | Activity (HepG2) | Activity (PC-12) | IC50 (Cholinesterase) [µM] | IC50 (Acetylcholinesterase) [µM] | Ratio IC50 (Homo sapiens) | viability at 48 h, 100 µM [1] [%] |
| --- | --- | --- | --- | --- | --- | --- |
| CCCCN(C)c1nc2ccccc2n1C | Non-toxic | Non-toxic | > 100 | > 100 | – | – |
| c1ccc(CCCNc2nc3ccccc3[nH]2)cc1 | Non-toxic | Non-toxic | > 100 | > 100 | – | – |
| COCCNc1nc2ccccc2[nH]1 | Non-toxic | Non-toxic | > 100 | > 100 | – | – |
| CC1CCCCN1c1nc2ccccc2[nH]1 (configuration not stated) | Non-toxic | Non-toxic | 2.03 | 88.9 | 43.8 | – |
| CCCCNc1nc2ccccc2[nH]1 | – | – | 61 | > 100 | – | 85.2 |
| CCN(CC)CCCNc1nc2ccccc2[nH]1 | Non-toxic | Non-toxic | > 100 | > 100 | – | – |
| c1ccc2[nH]c(NC34CC5CC(CC(C5)C3)C4)nc2c1 | Non-toxic | Non-toxic | > 100 | > 100 | – | – |
| CN(C)CCCN(c1nc2ccccc2[nH]1)c1nc2ccccc2[nH]1 | Non-toxic | Non-toxic | 2.26 | 59.7 | 26.4 | – |
| CCCCNc1nc2ccccc2n1C | Non-toxic | Non-toxic | > 100 | > 100 | – | – |
| CC(C)(C)OC(=O)NCCNc1nc2ccccc2[nH]1 | Non-toxic | Non-toxic | 71.9 | > 100 | – | – |
| c1ccc2[nH]c(N3CCCCC3)nc2c1 | Non-toxic | Non-toxic | 1.57 | 59.2 | 37.7 | – |
| CCCCN(C)c1nc2ccccc2[nH]1 | Non-toxic | Non-toxic | > 100 | > 100 | – | – |
| NCCNc1nc2ccccc2[nH]1 | Non-toxic | Non-toxic | > 100 | > 100 | – | – |
| c1ccc(Nc2nc3ccccc3[nH]2)nc1 | Non-toxic | Non-toxic | > 100 | > 100 | – | – |
| c1ccc2c(c1)CCCN2c1nc2ccccc2[nH]1 | Non-toxic | Non-toxic | > 100 | > 100 | – | – |
